System: 266295-075-R-J1-PDC spheroid viability
Assay: Anticancer human tumor 266295-075-R-J1-PDC patient-derived head and neck squamous carcinoma cell line growth inhibition [POLQ]
Conditions: spheroids with HUVEC and MSC; for IC50: curve of first compound; for viability, T/C: stronger effect = lower value
In short: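 Growth inhibition in 3D: complex spheroids (tumor PDC, HUVEC, MSC) treated with POLQ inhibitor combinations; where Cmax unknown, highest tested concentration 10 microM, except SN-38 at 1 microM.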

[1] = second compound 0.0316 µM, first compound 0.0316 µM
[2] = second compound 0.0316 µM, first compound 0.1 µM
[3] = second compound 0.0316 µM, first compound 0.316 µM
[4] = second compound 0.0316 µM, first compound 1 µM
[5] = second compound 0.0316 µM, first compound 3.16 µM
[6] = second compound 0.0316 µM, first compound 10 µM
[7] = second compound 0.1 µM, first compound 0.0316 µM
[8] = second compound 0.1 µM, first compound 0.1 µM
[9] = second compound 0.1 µM, first compound 0.316 µM
[10] = second compound 0.1 µM, first compound 1 µM
[11] = second compound 0.1 µM, first compound 3.16 µM
[12] = second compound 0.1 µM, first compound 10 µM
[13] = second compound 0.316 µM, first compound 0.0316 µM
[14] = second compound 0.316 µM, first compound 0.1 µM
[15] = second compound 0.316 µM, first compound 0.316 µM
[16] = second compound 0.316 µM, first compound 1 µM
[17] = second compound 0.316 µM, first compound 3.16 µM
[18] = second compound 0.316 µM, first compound 10 µM
[19] = second compound 1 µM, first compound 0.0316 µM
[20] = second compound 1 µM, first compound 0.1 µM
[21] = second compound 1 µM, first compound 0.316 µM
[22] = second compound 1 µM, first compound 1 µM
[23] = second compound 1 µM, first compound 3.16 µM
[24] = second compound 1 µM, first compound 10 µM
[25] = second compound 3.16 µM, first compound 0.0316 µM
[26] = second compound 3.16 µM, first compound 0.1 µM
[27] = second compound 3.16 µM, first compound 0.316 µM
[28] = second compound 3.16 µM, first compound 1 µM
[29] = second compound 3.16 µM, first compound 3.16 µM
[30] = second compound 3.16 µM, first compound 10 µM
[31] = second compound 10 µM, first compound 0.0316 µM
[32] = second compound 10 µM, first compound 0.1 µM
[33] = second compound 10 µM, first compound 0.316 µM
[34] = second compound 10 µM, first compound 1 µM
[35] = second compound 10 µM, first compound 3.16 µM
[36] = second compound 10 µM, first compound 10 µM
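Also: spheroids exposed to compounds for seven days before readout.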

CNCc1ccc(-c2[nH]c3cc(F)cc4c3c2CCNC4=O)cc1 + Cc1cccc(N(C)C(=O)C2C(O)CCN2c2nc(C)cc(C(F)(F)F)c2C#N)c1
IC50 (second compound 0.0316 µM): > 10 µM
IC50 (second compound 0.1 µM): > 10 µM
IC50 (second compound 0.316 µM): > 10 µM
IC50 (second compound 1 µM): > 10 µM
IC50 (second compound 3.16 µM): > 10 µM
IC50 (second compound 10 µM): > 10 µM
viability, T/C [1]: 87.1%
viability, T/C [2]: 117%
viability, T/C [3]: 87.5%
viability, T/C [4]: 105%
viability, T/C [5]: 107%
viability, T/C [6]: 102%
viability, T/C [7]: 95.4%
viability, T/C [8]: 99.8%
viability, T/C [9]: 88.2%
viability, T/C [10]: 84.2%
viability, T/C [11]: 126%
viability, T/C [12]: 128%
viability, T/C [13]: 104%
viability, T/C [14]: 111%
viability, T/C [15]: 104%
viability, T/C [16]: 99.1%
viability, T/C [17]: 98.3%
viability, T/C [18]: 112%
viability, T/C [19]: 102%
viability, T/C [20]: 102%
viability, T/C [21]: 99.9%
viability, T/C [22]: 93.6%
viability, T/C [23]: 110%
viability, T/C [24]: 123%
viability, T/C [25]: 105%
viability, T/C [26]: 88.7%
viability, T/C [27]: 101%
viability, T/C [28]: 102%
viability, T/C [29]: 112%
viability, T/C [30]: 115%
viability, T/C [31]: 90.1%
viability, T/C [32]: 115%
viability, T/C [33]: 113%
viability, T/C [34]: 126%
viability, T/C [35]: 107%
viability, T/C [36]: 106%

O=c1[nH]cc(F)c(=O)[nH]1 + Cc1cccc(N(C)C(=O)C2C(O)CCN2c2nc(C)cc(C(F)(F)F)c2C#N)c1
IC50 (second compound 0.0316 µM): > 10 µM
IC50 (second compound 0.1 µM): > 10 µM
IC50 (second compound 0.316 µM): > 10 µM
IC50 (second compound 1 µM): > 10 µM
IC50 (second compound 3.16 µM): > 10 µM
IC50 (second compound 10 µM): > 10 µM
viability, T/C [1]: 87.9%
viability, T/C [2]: 81%
viability, T/C [3]: 101%
viability, T/C [4]: 92.1%
viability, T/C [5]: 77.8%
viability, T/C [6]: 85.1%
viability, T/C [7]: 120%
viability, T/C [8]: 87.6%
viability, T/C [9]: 84.3%
viability, T/C [10]: 99.7%
viability, T/C [11]: 104%
viability, T/C [12]: 83.1%
viability, T/C [13]: 77.2%
viability, T/C [14]: 99.8%
viability, T/C [15]: 90.6%
viability, T/C [16]: 92.6%
viability, T/C [17]: 92.4%
viability, T/C [18]: 63.5%
viability, T/C [19]: 98.5%
viability, T/C [20]: 97.9%
viability, T/C [21]: 95.2%
viability, T/C [22]: 97.7%
viability, T/C [23]: 99.5%
viability, T/C [24]: 96.9%
viability, T/C [25]: 105%
viability, T/C [26]: 98.9%
viability, T/C [27]: 102%
viability, T/C [28]: 136%
viability, T/C [29]: 95.4%
viability, T/C [30]: 73.8%
viability, T/C [31]: 89.8%
viability, T/C [32]: 96.8%
viability, T/C [33]: 110%
viability, T/C [34]: 94.3%
viability, T/C [35]: 92.9%
viability, T/C [36]: 71.6%

Source: PubChem BioAssay AID1963853 (Molecular Pharmacology Branch, DTP, NCI, 2024)
